Earlier results, collected in US20090197946A1, “COMPOSITION AND METHOD FOR TREATMENT OF INFLAMATION AND INFECTIONS OF THE GENITALIA, CONTRACEPTIVE AND THE PROPHYLAXIS OF SEXUALLY TRANSMITTED DISEASES” (priority 2008, published 2009).

Columns and labels:
[1] = in vivo
[2] = test system: vaginal epithelium; conditions: topical, African commercial sex workers

| Compound | known potential side effects [1] | effect of frequent use on the vaginal epithelium [2] | susceptibility to the HIV infection ([2]; frequent use) |
| --- | --- | --- | --- |
| CC(C)OC(=O)OCOP(=O)(CO[C@H](C)Cn1cnc2c(N)ncnc21)OCOC(=O)OC(C)C [Viread, Tenofovir] | nausea, diarrhea, vomiting and flatulence | – | – |
| nonoxynol 9 | – | damaged the vaginal epithelium | increased their susceptibility to the HIV infection |
